According to patent US8993577B2, “Cyclopropyl amide derivatives” (Astrazeneca AB, priority 2009, dated 2015):

The compounds below were run against T1, human Histamine H3 receptor (hH3R) (Homo sapiens, UniProt Q9Y5N1) (assay: GTPγS binding assay, antagonist activity in membranes of CHO cells expressing hH3R). Details: membranes from CHO cells transfected with hH3R; (R)-α-methyl histamine 30 nM; [35S]GTPγS 0.2 nM.
T1 construct: expressed in transfected cells; host or cells: CHO (Chinese Hamster Ovary) cells; membranes
T1 sequence (Q9Y5N1 whole entry): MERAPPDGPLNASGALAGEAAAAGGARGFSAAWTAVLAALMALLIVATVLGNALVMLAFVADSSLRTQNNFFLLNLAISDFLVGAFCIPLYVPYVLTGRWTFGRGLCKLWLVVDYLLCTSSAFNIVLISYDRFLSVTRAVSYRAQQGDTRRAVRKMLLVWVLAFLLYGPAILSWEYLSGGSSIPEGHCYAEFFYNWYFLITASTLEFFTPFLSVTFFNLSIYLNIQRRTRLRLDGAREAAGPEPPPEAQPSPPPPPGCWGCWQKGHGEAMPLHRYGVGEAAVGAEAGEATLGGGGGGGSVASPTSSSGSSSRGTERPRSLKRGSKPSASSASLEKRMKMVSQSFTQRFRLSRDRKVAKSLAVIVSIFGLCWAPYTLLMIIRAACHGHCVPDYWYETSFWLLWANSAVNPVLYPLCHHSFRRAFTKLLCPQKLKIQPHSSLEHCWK
Format: biochemical
Excerpt: At least one compound of at least one formula described herein including the compounds described in the Examples hereof, when tested in at least one in vitro assay as substantially described below is active towards H3 receptors. Particularly, at least one compound described herein is an effective H3 receptor ligand. The in vitro activity may be related to in vivo activity but may not be linearly correlated with binding affinity. In the in vitro assay, a compound can be tested for its activity toward H3 receptors and IC50 obtained to determine the activity for a particular compound toward the H3 receptor.
Guanosine 5′-O-(3-[^35S]thio)triphosphate [GTPγS] Binding Assay
A GTPγS binding assay can be used to investigate antagonist properties of compounds in CHO cells (Chinese Hamster Ovary) transfected with human Histamine H3 receptor (hH3R). Membranes from CHO cells expressing hH3R (10 μg/well) are diluted in GTPγS assay buffer (20 mM Hepes, 10 mM MgCl2, 100 mM NaCl, pH 7.4) and preincubated with saponine (3 μg/ml), GDP (10 μM) and PVT-WGA SPA beads (125 μg/well) (Amersham) for 30 minutes. To determine antagonist activity, (R)-α-methyl histamine (30 nM) is added in 96 well SPA plate with [^35S]GTPγS (0.2 nM) and various concentration of H3R antagonists. The GTPγS binding assay is started with addition of the mixture membrane/saponine/GDP and incubated for 90 minutes at room temperature. The amount of bound [^35S]GTPγS is determined by using the MicroBeta Trilux counter (PerkinElmer). The percentage of [^35S]GTPγS bound in each sample is calculated as a percentage of that bound control sample incubated in absence of H3 antagonist. Duplicate determinations are obtained for each concentration, and the data are analyzed using ExcelFit4 to obtain the IC50.
Set forth in Table 1 hereinbelow for the Example 1-34 compounds are IC50 values that were generated in accordance with the GTPγS Binding Assay as essentially described hereinabove.

Row | Compound | IC50
1 | 3-((trans)-2-((S)-4-cyclobutyl-2-methylpiperazine-1-carbonyl)cyclopropyl)benzamide, isomer 2 [Example 32] | > 1110 nM
2 | C[C@H]1CN(C(=O)[C@H]2C[C@@H]2c2ccc(C(N)=O)cc2)CCN1C1CCC1 (mixture of isomers) [Example 17, 4-(trans-2-((S)-4-cyclobutyl-3-methylpiperazine-1-carbonyl)cyclopropyl)benzamide, diastereomeric mixture] | 14.2 nM
3 | C[C@@H]1CN(C2CCC2)CCN1C(=O)[C@H]1C[C@@H]1c1cccc(C(N)=O)c1 (mixture of isomers) [Example 27, 3-(trans-2-((R)-4-cyclobutyl-2-methylpiperazine-1-carbonyl)cyclopropyl)benzamide, diastereomeric mixture] | 12 nM
4 | CC1(C)CN(C2CCC2)CCN1C(=O)[C@H]1C[C@@H]1c1ccc(C(N)=O)cc1 (racemic) [Example 23, 4-(trans-2-(4-cyclobutyl-2,2-dimethylpiperazine-1-carbonyl)cyclopropyl)benzamide, enantiomeric mixture] | > 1110 nM
5 | CC[C@H]1CN(C2CCC2)CCN1C(=O)[C@H]1C[C@@H]1c1ccc(C(N)=O)cc1 (mixture of isomers) [Example 16, 4-(trans-2-((S)-4-cyclobutyl-2-ethylpiperazine-1-carbonyl)cyclopropyl)benzamide, diastereomeric mixture] | > 1110 nM
6 | 4-(trans-2-((R)-4-isopropyl-2-methylpiperazine-1-carbonyl)cyclopropyl)benzamide, isomer 2 [Example 3] | 326 nM
7 | C[C@H]1CN(C2CCC2)CCN1C(=O)[C@H]1C[C@@H]1c1ccc(C(N)=O)cc1 (mixture of isomers) [Example 10, 4-(trans-2-((S)-4-cyclobutyl-2-methylpiperazine-1-carbonyl)cyclopropyl)benzamide, diastereomeric mixture] | 8.06 nM
8 | 3-((trans)-2-((R)-4-cyclobutyl-2-methylpiperazine-1-carbonyl)cyclopropyl)benzamide, isomer 2 [Example 29] | 576 nM
9 | 4-(trans-2-(4-cyclobutyl-3,3-dimethylpiperazine-1-carbonyl)cyclopropyl)benzamide, enantiomer 2 [Example 26] | > 1110 nM
10 | CC1(C)CN(C(=O)[C@H]2C[C@@H]2c2ccc(C(N)=O)cc2)CCN1C1CCC1 (racemic) [Example 24, 4-(trans-2-(4-cyclobutyl-3,3-dimethylpiperazine-1-carbonyl)cyclopropyl)benzamide, enantiomeric mixture] | 15.9 nM
11 | C[C@@H]1CN(C2CCC2)CCN1C(=O)[C@H]1C[C@@H]1c1ccc(C(N)=O)cc1 [Example 8, 4-((trans)-2-((R)-4-cyclobutyl-2-methylpiperazine-1-carbonyl)cyclopropyl)benzamide, isomer 1] | 4.94 nM
12 | CC(C)N1CCN(C(=O)[C@H]2C[C@@H]2c2ccc(C(N)=O)cc2)[C@H](C)C1 (mixture of isomers) [Example 1, 4-(trans-2-((R)-4-isopropyl-2-methylpiperazine-1-carbonyl)cyclopropyl)benzamide, diastereomeric Mixture] | 7.48 nM
13 | 3-((trans)-2-((R)-4-cyclobutyl-2-methylpiperazine-1-carbonyl)cyclopropyl)benzamide, isomer 1 [Example 28] | 5.28 nM
14 | CC(C)N1CCN(C(=O)[C@H]2C[C@@H]2c2ccc(C(N)=O)cc2)[C@@H](C)C1 (mixture of isomers) [Example 4, 4-(trans-2-((S)-4-isopropyl-2-methylpiperazine-1-carbonyl)cyclopropyl)benzamide, diastereomeric mixture] | 13.5 nM
15 | 4-(trans-2-((R)-4-cyclobutyl-2-ethylpiperazine-1-carbonyl)cyclopropyl)benzamide, isomer 1 [Example 14] | 15.3 nM
16 | 4-(trans-2-((S)-4-isopropyl-2-methylpiperazine-1-carbonyl)cyclopropyl)benzamide, isomer 1 [Example 5] | 8.54 nM
17 | 4-((trans)-2-((S)-4-cyclobutyl-2-methylpiperazine-1-carbonyl)cyclopropyl)benzamide, isomer 1 [Example 11] | 5.77 nM

Row | Compound | IC50
18 | C[C@@H]1CN(C2CCC2)CCN1C(=O)[C@H]1C[C@@H]1c1ccc(C(N)=O)cc1 (mixture of isomers) [Example 7, 4-(trans-2-((R)-4-cyclobutyl-2-methylpiperazine-1-carbonyl)cyclopropyl)benzamide, diastereomeric mixture] | 8.82 nM
19 | C[C@@H]1CN(C(=O)[C@H]2C[C@@H]2c2ccc(C(N)=O)cc2)CCN1C1CCC1 (mixture of isomers) [Example 20, 4-(trans-2-((R)-4-cyclobutyl-3-methylpiperazine-1-carbonyl)cyclopropyl)benzamide, diastereomeric mixture] | 8.74 nM
20 | 4-(trans-2-((S)-4-isopropyl-2-methylpiperazine-1-carbonyl)cyclopropyl)benzamide, isomer 2 [Example 6] | > 1110 nM
21 | 4-((trans)-2-((S)-4-cyclobutyl-2-methylpiperazine-1-carbonyl)cyclopropyl)benzamide, isomer 2 [Example 12] | 1320 nM
22 | 4-(trans-2-(4-cyclobutyl-3,3-dimethylpiperazine-1-carbonyl)cyclopropyl)benzamide, enantiomer 1 [Example 25] | 12 nM
23 | 4-((trans)-2-((R)-4-cyclobutyl-3-methylpiperazine-1-carbonyl)cyclopropyl)benzamide, isomer 1 [Example 21] | 6.83 nM
24 | 4-((trans)-2-((R)-4-cyclobutyl-3-methylpiperazine-1-carbonyl)cyclopropyl)benzamide, isomer 2 [Example 22] | 1010 nM
25 | 4-((trans)-2-((R)-4-cyclobutyl-2-methylpiperazine-1-carbonyl)cyclopropyl)benzamide, isomer 2 [Example 9] | 121 nM
26 | 4-(trans-2-((R)-4-isopropyl-2-methylpiperazine-1-carbonyl)cyclopropyl)benzamide, isomer 1 [Example 2] | 5.66 nM
27 | 4-((trans)-2-((S)-4-cyclobutyl-3-methylpiperazine-1-carbonyl)cyclopropyl)benzamide, isomer 1 [Example 18] | 5.98 nM
28 | C[C@H]1CN(C2CCC2)CCN1C(=O)[C@H]1C[C@@H]1c1cccc(C(N)=O)c1 (mixture of isomers) [Example 30, 3-(trans-2-((S)-4-cyclobutyl-2-methylpiperazine-1-carbonyl)cyclopropyl)benzamide, diastereomeric mixture] | 16.3 nM
29 | 3-((trans)-2-((S)-4-cyclobutyl-2-methylpiperazine-1-carbonyl)cyclopropyl)benzamide, isomer 1 [Example 31] | 6.96 nM
30 | C[C@H]1CN(C(=O)[C@H]2C[C@@H]2c2cccc(C(N)=O)c2)CCN1C1CCC1 (mixture of isomers) [Example 33, 3-(trans-2-((S)-4-cyclobutyl-3-methylpiperazine-1-carbonyl)cyclopropyl)benzamide, diastereomeric mixture] | 41 nM
31 | 4-((trans)-2-((S)-4-cyclobutyl-3-methylpiperazine-1-carbonyl)cyclopropyl)benzamide, isomer 2 [Example 19] | 1270 nM
32 | C[C@@H]1CN(C(=O)[C@H]2C[C@@H]2c2cccc(C(N)=O)c2)CCN1C1CCC1 (mixture of isomers) [Example 34, 3-(trans-2-((R)-4-cyclobutyl-3-methylpiperazine-1-carbonyl)cyclopropyl)benzamide, diastereomeric mixture] | 51.8 nM
33 | 4-(trans-2-((R)-4-cyclobutyl-2-ethylpiperazine-1-carbonyl)cyclopropyl)benzamide, isomer 2 [Example 15] | 140 nM
34 | CC[C@@H]1CN(C2CCC2)CCN1C(=O)[C@H]1C[C@@H]1c1ccc(C(N)=O)cc1 (mixture of isomers) [Example 13, 4-(trans-2-((R)-4-cyclobutyl-2-ethylpiperazine-1-carbonyl)cyclopropyl)benzamide, diastereomeric mixture] | 29.1 nM
